This note sets out measurements from PubChem BioAssay AID330 (DTP/NCI, 2004).

This assay has as its system P388 leukemia ip, CD2F1 mice, survival T/C. Put plainly: NCI In Vivo Anticancer Drug Screen. Data for tumor model P388 Leukemia (intraperitoneal) in CD2F1 (CDF1) mice. To be noted: endpoint: median survival time, higher = longer survival. Put shortly: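 Mice carrying the transplanted tumor received test compound or vehicle. Survival was recorded in each group, and the value is the treated-group measurement divided by that of the vehicle-treated control group.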

[1] abbreviates: dose: 50.0 mg/kg/injection, schedule: Q01DX005 (ip), vehicle: saline.
The mark [2] stands for this setting: dose: 100.0 mg/kg/injection, schedule: Q01DX005 (ip), vehicle: saline.
The mark [3] stands for this setting: dose: 200.0 mg/kg/injection, schedule: Q01DX005 (ip), vehicle: saline.
[4] abbreviates: dose: 50.0 mg/kg/injection, schedule: Q01DX009 (ip), vehicle: Klucel (hydroxypropylcellulose) (HPC).
Where [5] appears, read: dose: 100.0 mg/kg/injection, schedule: Q01DX009 (ip), vehicle: Klucel (hydroxypropylcellulose) (HPC).
Where [6] appears, read: dose: 200.0 mg/kg/injection, schedule: Q01DX009 (ip), vehicle: Klucel (hydroxypropylcellulose) (HPC).
The mark [7] stands for this setting: dose: 100.0 mg/kg/injection, schedule: Q01DX009 (ip), vehicle: saline with Tween-80.
Setting [8] is: dose: 100.0 mg/kg/injection, schedule: Q04DX003 (ip), vehicle: saline with Tween-80.
[9] abbreviates: dose: 200.0 mg/kg/injection, schedule: Q01DX009 (ip), vehicle: saline with Tween-80.
Where [10] appears, read: dose: 200.0 mg/kg/injection, schedule: Q04DX003 (ip), vehicle: saline with Tween-80.
[11] abbreviates: dose: 50.0 mg/kg/injection, schedule: Q01DX009 (ip), vehicle: saline with Tween-80.
Where [12] appears, read: dose: 60.0 mg/kg/injection, schedule: Q01DX005 (ip), vehicle: saline with Tween-80.
Where [13] appears, read: dose: 120.0 mg/kg/injection, schedule: Q01DX005 (ip), vehicle: saline with Tween-80.
[14] abbreviates: dose: 240.0 mg/kg/injection, schedule: Q01DX005 (ip), vehicle: saline with Tween-80.
[15] abbreviates: dose: 25.0 mg/kg/injection, schedule: Q04DX003 (ip), vehicle: saline with Tween-80.
The mark [16] stands for this setting: dose: 50.0 mg/kg/injection, schedule: Q04DX003 (ip), vehicle: saline with Tween-80.
Setting [17] is: dose: 6.25 mg/kg/injection, schedule: Q01DX009 (ip), vehicle: saline.
The mark [18] stands for this setting: dose: 12.5 mg/kg/injection, schedule: Q01DX009 (ip), vehicle: saline.
Where [19] appears, read: dose: 25.0 mg/kg/injection, schedule: Q01DX009 (ip), vehicle: saline.
The mark [20] stands for this setting: dose: 50.0 mg/kg/injection, schedule: Q01DX005 (ip), vehicle: Klucel (hydroxypropylcellulose) (HPC).
[21] abbreviates: dose: 100.0 mg/kg/injection, schedule: Q01DX005 (ip), vehicle: Klucel (hydroxypropylcellulose) (HPC).

Several values for one entry are separate records, joined by “and”; a condition that tells them apart may be missing. Identical values can stand only once. Inconclusive results and toxic doses are left out.

As to `CCN(CC)CCNc1ccc(COC(=O)NC)c2oc3ccc(OC(=O)NC)cc3c(=O)c12`, the T/C (dose: 3.13 mg/kg/injection, schedule: Q01DX005 (ip), vehicle: Klucel (hydroxypropylcellulose) (HPC)) was 123 % of control.
In the case of `CCCCN(CCCC)C(=O)C(C)OC(C)=O` (stereo not given), the T/C reads like this: (dose: 25.0 mg/kg/injection, schedule: Q01DX005 (ip), vehicle: saline) 95 % of control; under setting [1], 95 % of control; under setting [2], 108 % of control; under setting [3], 105 % of control.
In the case of `CCSc1nc2ccc(NC(=O)CCC(=O)O)cc2s1`, the T/C reads like this: under setting [4], 103 % of control; under setting [5], 102 % of control; under setting [6], 101 % of control.
In the case of `C=C1CC/C=C(\C)C(=O)C(O)C2C1CC2(C)C` (stereo not given), the T/C by setting is: (dose: 0.37 mg/kg/injection, schedule: Q01DX009 (ip), vehicle: saline + alcohol) 104 % of control; (dose: 0.75 mg/kg/injection, schedule: Q01DX009 (ip), vehicle: saline + alcohol) 104 % of control; (dose: 1.5 mg/kg/injection, schedule: Q01DX009 (ip), vehicle: saline + alcohol) 106 % of control; (dose: 3.0 mg/kg/injection, schedule: Q01DX009 (ip), vehicle: saline + alcohol) 105 % of control; (dose: 6.0 mg/kg/injection, schedule: Q01DX009 (ip), vehicle: saline + alcohol) 88 % of control.
Consider `N#CC(C(=O)CCCC(=O)Nc1cccc([N+](=O)[O-])c1)c1c(Cl)cccc1Cl` (stereo not given), for which the T/C by setting is: (dose: 50.0 mg/kg/injection, schedule: Q01DX005 (ip), vehicle: saline with Tween-80) 111 % of control; (dose: 100.0 mg/kg/injection, schedule: Q01DX005 (ip), vehicle: saline with Tween-80) 111 % of control; (dose: 200.0 mg/kg/injection, schedule: Q01DX005 (ip), vehicle: saline with Tween-80) 105 % of control.
Turning to `CC(=O)O[C@H]1C2c3c(ccc4c(=O)cc(-c5ccccc5)oc34)OC2OC1(C)C` (stereo not given in full), the T/C (dose: 0.4 mg/kg/injection, schedule: Q01DX005 (ip), vehicle: Klucel (hydroxypropylcellulose) (HPC)) was 97 % of control; the T/C (dose: 0.8 mg/kg/injection, schedule: Q01DX005 (ip), vehicle: Klucel (hydroxypropylcellulose) (HPC)) is 92 % of control; the T/C (dose: 1.6 mg/kg/injection, schedule: Q01DX005 (ip), vehicle: Klucel (hydroxypropylcellulose) (HPC)) was 97 % of control; the T/C (dose: 3.2 mg/kg/injection, schedule: Q01DX005 (ip), vehicle: Klucel (hydroxypropylcellulose) (HPC)) was 98 % of control.
In the case of `CCCCCCCCCCCCCCCC[N+]1(CC)CCOCC1` (tested in a mixture with another compound), the T/C was 96 % of control (dose: 3.13 mg/kg/injection, schedule: Q01DX009 (ip), vehicle: Klucel (hydroxypropylcellulose) (HPC)); 113 % of control (dose: 6.25 mg/kg/injection, schedule: Q01DX009 (ip), vehicle: Klucel (hydroxypropylcellulose) (HPC)); 115 % of control (dose: 12.5 mg/kg/injection, schedule: Q01DX009 (ip), vehicle: Klucel (hydroxypropylcellulose) (HPC)).
In the case of `CN=C(NCCSCc1ccc2ccccc2n1)NS(=O)(=O)c1ccccc1`, the T/C is, setting by setting: under setting [1], 106 % of control; under setting [2], 106 % of control; under setting [3], 100 % of control.
Regarding `O=C1NC(=O)C([N+](=O)[O-])C(=O)N1`, the T/C is 100 % of control (dose: 25.0 mg/kg/injection, schedule: Q01DX001 (ip), vehicle: saline) and 108 % of control (dose: 50.0 mg/kg/injection, schedule: Q01DX001 (ip), vehicle: saline).
Regarding `c1ccc2c(c1)Nc1ccncc1S2`, the T/C was 100 % of control under setting [7]; 100 % of control under setting [8]; 100 % of control under setting [9]; 100 % of control under setting [10]; 100 % of control (dose: 400.0 mg/kg/injection, schedule: Q01DX009 (ip), vehicle: saline with Tween-80).
As to `CCCCOC(=O)NCCCl`, the T/C reads like this: under setting [11], 96 % of control; under setting [7], 97 % of control; under setting [9], 102 % of control.
Consider `CCOC(=O)CCC(NC(=O)c1ccc(I)cc1)C(=O)OCC` (stereo not given), for which the T/C is, setting by setting: under setting [4], 100 % of control; under setting [5], 93 % of control; under setting [6], 102 % of control.
Turning to `Nc1ccc2c(n1)NCC/C2=N\Nc1ccc(F)cc1`, the T/C was 105 % of control under setting [11] and 105 % of control under setting [7].
Turning to `Cc1nc(O)c(-c2ccc(Cl)cc2)s1`, the T/C by setting is: under setting [11], 102 % of control; under setting [7], 103 % of control; under setting [9], 101 % of control.
For the molecule `CN(C)c1ccc(C(c2c(O)c3ccccc3oc2=O)c2c(O)c3ccccc3oc2=O)cc1`, the T/C reads like this: (dose: 3.75 mg/kg/injection, schedule: Q01DX005 (ip), vehicle: saline with Tween-80) 99 % of control; (dose: 7.5 mg/kg/injection, schedule: Q01DX005 (ip), vehicle: saline with Tween-80) 91 % of control; (dose: 15.0 mg/kg/injection, schedule: Q01DX005 (ip), vehicle: saline with Tween-80) 88 % of control and 98 % of control.
Take `COC1(C)C(=O)N(C)C1c1ccccc1` (stereo not given): the T/C is 100 % of control under setting [12], 97 % of control under setting [13] and 100 % of control under setting [14].
Consider `C=C1C(=O)OC2C1C(OC(=O)/C(C)=C\C)CC1(CO1)C1C(O)C=C(C)C21O` (stereo not given), for which the T/C is 112 % of control under setting [15] and 113 % of control under setting [16].
On to `CCCCC(C)(CN(C)C)C(=O)/C=C/c1ccc(Cl)c(Cl)c1` (stereo not given), for which the T/C runs as follows: (dose: 3.13 mg/kg/injection, schedule: Q01DX009 (ip), vehicle: saline) 111 % of control and 97 % of control; under setting [17], 102 % of control and 108 % of control; under setting [18], 109 % of control; under setting [19], 106 % of control and 109 % of control.
`O=C1N/C(=C\c2nc3ccccc3s2)c2ccccc21`: the T/C runs as follows: under setting [11], 96 % of control; under setting [7], 90 % of control; under setting [9], 89 % of control.
In the case of `O=C(/C=C/c1c(-c2ccccc2)[nH]c2ccccc12)c1cccc([N+](=O)[O-])c1`, the T/C runs as follows: under setting [12], 98 % of control; under setting [13], 90 % of control; under setting [14], 90 % of control.
In the case of `O=[N+]([O-])c1cc2c(ccc3cc(Br)ccc32)o1`, the T/C by setting is: under setting [20], 87 % of control; under setting [21], 92 % of control; (dose: 200.0 mg/kg/injection, schedule: Q01DX005 (ip), vehicle: Klucel (hydroxypropylcellulose) (HPC)) 92 % of control.
On to `O=C1CCSC(=S)N1c1ccc(Br)c(Cl)c1`, for which the T/C is 116 % of control (dose: 50.0 mg/kg/injection, schedule: Q01DX009 (ip), vehicle: suspension in saline); 116 % of control (dose: 100.0 mg/kg/injection, schedule: Q01DX009 (ip), vehicle: suspension in saline); 106 % of control (dose: 200.0 mg/kg/injection, schedule: Q01DX009 (ip), vehicle: suspension in saline).
On to `CC1(C)CC(Nc2ccccc2)=CC(N2CCOCC2)=N1`, for which the T/C was 103 % of control under setting [20] and 100 % of control under setting [21].
Consider `O=C(NCc1ccccc1)c1ccc(Cl)c(Cl)c1`, for which the T/C runs as follows: under setting [15], 101 % of control; under setting [16], 104 % of control; under setting [8], 90 % of control; under setting [10], 95 % of control.
On to `COC1=CC(=O)C(OC)=C(C2C(=O)N(C)c3ccccc32)C1=O` (stereo not given), for which the T/C is, setting by setting: (dose: 7.5 mg/kg/injection, schedule: Q01DX005 (ip), vehicle: saline) 111 % of control; (dose: 15.0 mg/kg/injection, schedule: Q01DX005 (ip), vehicle: saline) 121 % of control; under setting [12], 117 % of control.
Regarding `ClCCN(CCCl)c1ccc(CCN2CCOCC2)cc1`, the T/C was 100 % of control and 113 % of control under setting [17]; 150 % of control and 154 % of control under setting [18]; 150 % of control and 220 % of control under setting [19].
